Experimental data published in ChEMBL document CHEMBL5257041, “An exhaustive perspective on structural insights of SGLT2 inhibitors: A novel class of antidiabetic agent” (Eur J Med Chem, 2020).

Target: T1, Sodium/glucose cotransporter 2 (Homo sapiens, UniProt P31639)
T1 sequence (P31639 whole entry): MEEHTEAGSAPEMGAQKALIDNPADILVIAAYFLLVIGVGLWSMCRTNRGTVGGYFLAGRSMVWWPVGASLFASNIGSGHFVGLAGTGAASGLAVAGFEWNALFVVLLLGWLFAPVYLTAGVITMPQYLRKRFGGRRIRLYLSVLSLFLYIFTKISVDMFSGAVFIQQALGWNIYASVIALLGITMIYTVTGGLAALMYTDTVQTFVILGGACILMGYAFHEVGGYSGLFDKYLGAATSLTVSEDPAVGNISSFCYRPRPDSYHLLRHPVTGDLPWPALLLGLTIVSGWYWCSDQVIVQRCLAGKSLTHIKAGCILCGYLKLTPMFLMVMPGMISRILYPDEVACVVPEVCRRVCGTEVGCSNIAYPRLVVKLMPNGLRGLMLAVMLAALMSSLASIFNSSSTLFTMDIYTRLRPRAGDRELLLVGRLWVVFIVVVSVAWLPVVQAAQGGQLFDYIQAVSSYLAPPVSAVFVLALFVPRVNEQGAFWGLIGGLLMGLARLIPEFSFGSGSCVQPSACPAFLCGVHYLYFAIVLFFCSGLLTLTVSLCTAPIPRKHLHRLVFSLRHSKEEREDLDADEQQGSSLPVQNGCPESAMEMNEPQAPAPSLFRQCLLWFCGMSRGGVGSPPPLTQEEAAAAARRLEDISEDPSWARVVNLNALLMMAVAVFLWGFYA
Experiment: Inhibition of human SGLT2

IC50: 0.35 nM
SMILES: CCc1ccc(Cc2cc([C@@H]3O[C@H](CO)C(F)(F)[C@H](O)[C@H]3O)ccc2Cl)cc1
